Data reported in US20260223850A1, “SUBSTITUTED PYRROLIDONE COMPOUND, PREPARATION METHOD THEREFOR, COMPOSITION AND APPLICATION THEREOF” (QINGDAO KINGAGROOT CHEMICAL COMPOUND CO., LTD., priority 2023, published 2026).

What was measured:
Experiment in all cases: Seedling stage sealing experiment for water-seeding
Type in all cases: in vivo
[1] = system: Echinochloa crusgalli; details: 120 g a.i./ha, seedling stage sealing, 15 days, fresh weight control rate
[2] = system: Echinochloa phyllopogon; details: 120 g a.i./ha, seedling stage sealing, 15 days, fresh weight control rate
How it was run: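 Seeds broadcast on soil in nutrition bowls, covered, kept moist in a water-filled box; compound in acetone diluted with water and spray-tower applied at 120, 60, 30 and 15 g a.i./ha, triplicate. Scored after 15 days in greenhouse on a 0–9 scale of fresh-weight growth control, averaged.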

[3] = system: Leptochloa chinensis; details: 120 g a.i./ha, 15 days, fresh weight control rate
From the text: (1) Seedling Stage Sealing Experiment for Water-Seeding:
The activity level criteria for plant damage (i.e., growth control rate) are as follows: • Level 9: completely dead; • Level 8: growth control rate greater than or equal to 90% and less than 100%; • Level 7: growth control rate greater than or equal to 80% and less than 90%; • Level 6: growth control rate greater than or equal to 70% and less than 80%; • Level 5: growth control rate greater than or equal to 50% and less than 70%; • Level 4: growth control rate greater than or equal to 30% and less than 50%; • Level 3: growth control rate greater than or equal to 20% and less than 30%; • Level 2: growth control rate greater than or equal to 10% and less than 20%; • Level 1: growth control rate less than 10%; • Level 0: no effect.
The above growth control rates are fresh weight control rates.
Echinochloa phyllopogon, Digitaria sanguinalis, Huaidao (rice cultivar), etc. were broadcasted on the surface of nutrition bowls filled with soil and fully covered by soil. The foregoing well-prepared nutrition bowls were then placed in a cultivation box with water filled to a suitable height to keep the soil in the nutrition bowls moist. A test compound of the present invention was individually dissolved with acetone, then diluted into solution of a certain concentration using a certain amount of water, and sprayed using a spray tower. The plants were placed on a greenhouse seedbed and cultured for 15 days, and the experimental results were then collected. The compound was applied at 120, 60, 30 and 15 g a.i./ha in triplicate, and the results were averaged.

| SMILES | Echinochloa crusgalli activity level (growth control rate) [1] | Echinochloa phyllopogon activity level (growth control rate) [2] | Leptochloa chinensis activity level (growth control rate) [3] |
| --- | --- | --- | --- |
| CC(C)c1c(NC(=O)[C@H]2C(=O)N(C)C[C@@H]2c2cccc(C(F)(F)F)c2)cnn1C [194′] | 5 (Level 5: growth control rate greater than or equal to 50% and less than 70%) | 5 (Level 5: growth control rate greater than or equal to 50% and less than 70%) | 6 (Level 6: growth control rate greater than or equal to 70% and less than 80%) |
| CN1C[C@H](c2cccc(C(F)(F)F)c2)[C@@H](C(=O)Nc2cnn(C)c2C2CC2)C1=O [195′] | 9 | 7 (Level 7: growth control rate greater than or equal to 80% and less than 90%) | 9 |
| CN1C[C@H](c2cccc(C(F)(F)F)c2)[C@@H](C(=O)Nc2cnn(C(F)F)c2C2CC2)C1=O [196′] | 9 | 9 | 9 |
| CC(C)n1ncc(NC(=O)[C@H]2C(=O)N(C)C[C@@H]2c2cccc(C(F)(F)F)c2)c1C1CC1 [197′] | 8 (Level 8: growth control rate greater than or equal to 90% and less than 100%) | 6 (Level 6: growth control rate greater than or equal to 70% and less than 80%) | 9 |
| C=Cc1c(NC(=O)[C@H]2C(=O)N(C)C[C@@H]2c2cccc(C(F)(F)F)c2)cnn1C [203′] | 9 | 9 | 9 |
| CN1C[C@H](c2cccc(C(F)(F)F)c2)[C@@H](C(=O)Nc2c(O)nn(C)c2F)C1=O [212′] | 9 | 9 | 9 |
| COc1cccc([C@H]2CN(C)C(=O)[C@@H]2C(=O)Nc2cnn(C)c2C2CC2)c1 [217′] | 9 | 6 (Level 6: growth control rate greater than or equal to 70% and less than 80%) | 6 (Level 6: growth control rate greater than or equal to 70% and less than 80%) |
| CN1C[C@H](c2cccc(OC(F)(F)F)c2)[C@@H](C(=O)Nc2c(O)nn(C)c2F)C1=O [229′] | 9 | 9 | 9 |
| CN1C[C@H](c2cccc(OC(F)(F)C(F)F)c2)[C@@H](C(=O)Nc2cnn(C)c2Cl)C1=O [231′] | 9 | 6 (Level 6: growth control rate greater than or equal to 70% and less than 80%) | 9 |
| CN1C[C@H](c2cc(F)cc(F)c2)[C@@H](C(=O)Nc2c(O)nn(C)c2F)C1=O [263′] | 9 | 8 (Level 8: growth control rate greater than or equal to 90% and less than 100%) | 9 |
| Cc1cc(Br)cc([C@H]2CN(C)C(=O)[C@@H]2C(=O)Nc2cnn(C)c2Cl)c1 [265′] | 9 | 9 | 9 |
| Cc1cc(C)cc([C@H]2CN(C)C(=O)[C@@H]2C(=O)Nc2cnn(C(F)F)c2Cl)c1 [269′] | 9 | 9 | 9 |
| C=Cc1c(NC(=O)[C@H]2C(=O)N(C)C[C@@H]2c2cc(C)cc(C)c2)cnn1C [275′] | 9 | 9 | 9 |
| CN1C[C@H](c2cc(F)cc(C(F)(F)F)c2)[C@@H](C(=O)Nc2cnn(C3CC3)c2Cl)C1=O [290′] | 9 | 8 (Level 8: growth control rate greater than or equal to 90% and less than 100%) | 9 |
| CC(C)n1ncc(NC(=O)[C@H]2C(=O)N(C)C[C@@H]2c2cc(F)cc(C(F)(F)F)c2)c1Cl [291′] | 9 | 9 | 9 |
| CN1C[C@H](c2cc(F)cc(C(F)(F)F)c2)[C@@H](C(=O)Nc2cnn(C)c2C2CC2)C1=O [293′] | 9 | 9 | 9 |
| COc1cc(Cl)cc([C@H]2CN(C)C(=O)[C@@H]2C(=O)Nc2cnn(C)c2Cl)c1 [297′] | 9 | 6 (Level 6: growth control rate greater than or equal to 70% and less than 80%) | 9 |
| CCOc1cc(F)cc([C@H]2CN(C)C(=O)[C@@H]2C(=O)Nc2cnn(C)c2Cl)c1 [299′] | 9 | 9 | 9 |
| COc1cc(C)cc([C@H]2CN(C)C(=O)[C@@H]2C(=O)Nc2cnn(C)c2Cl)c1 [300′] | 9 | 7 (Level 7: growth control rate greater than or equal to 80% and less than 90%) | 9 |
| CN1C[C@H](c2ccc(F)c(Cl)c2)[C@@H](C(=O)Nc2cnn(C)c2C2CC2)C1=O [308′] | 9 | 9 | 9 |
| CN1C[C@H](c2ccc(F)c(Cl)c2)[C@@H](C(=O)Nc2c(O)nn(C)c2F)C1=O [311′] | 9 | 8 (Level 8: growth control rate greater than or equal to 90% and less than 100%) | 9 |
| CN1C[C@H](c2ccc(C(F)(F)F)c(F)c2)[C@@H](C(=O)Nc2cnn(C)c2Cl)C1=O [315′] | 9 | 8 (Level 8: growth control rate greater than or equal to 90% and less than 100%) | 9 |
| CC(C)Oc1cc([C@H]2CN(C)C(=O)[C@@H]2C(=O)Nc2cnn(C)c2Cl)ccc1F [318′] | 9 | 8 (Level 8: growth control rate greater than or equal to 90% and less than 100%) | 8 (Level 8: growth control rate greater than or equal to 90% and less than 100%) |
| COc1cc([C@H]2CN(C)C(=O)[C@@H]2C(=O)Nc2cnn(C)c2Cl)ccc1Cl [319′] | 5 (Level 5: growth control rate greater than or equal to 50% and less than 70%) | 5 (Level 5: growth control rate greater than or equal to 50% and less than 70%) | 6 (Level 6: growth control rate greater than or equal to 70% and less than 80%) |
| COc1cc([C@H]2CN(C)C(=O)[C@@H]2C(=O)Nc2cnn(C)c2Cl)ccc1C [321′] | 9 | 6 (Level 6: growth control rate greater than or equal to 70% and less than 80%) | 7 (Level 7: growth control rate greater than or equal to 80% and less than 90%) |
| CN1C[C@H](c2ccc3ccccc3c2)[C@@H](C(=O)Nc2cnn(C)c2Cl)C1=O [353′] | 9 | 7 (Level 7: growth control rate greater than or equal to 80% and less than 90%) | 9 |
| CN1CC(c2cccc(Cl)c2)C(C(=O)Nc2cnn(C)c2Cl)C1=O (stereo not drawn) [Compound 16] | 6 (Level 6: growth control rate greater than or equal to 70% and less than 80%) | 5 (Level 5: growth control rate greater than or equal to 50% and less than 70%) | 9 |
| C=CCc1cccc(C2CN(C)C(=O)C2C(=O)Nc2cnn(C)c2Cl)c1 (stereo not drawn) [Compound 24] | 9 | 8 (Level 8: growth control rate greater than or equal to 90% and less than 100%) | 9 |
| CN1CC(c2cccc(OC(F)(F)F)c2)C(C(=O)Nc2cnn(C)c2Cl)C1=O (stereo not drawn) [Compound 33] | 9 | 5 (Level 5: growth control rate greater than or equal to 50% and less than 70%) | 9 |
